The text below walks through data of ChEMBL document CHEMBL1201862, “PubChem BioAssay data set” (2004).

Assay [1] has as its target T1, E3 ubiquitin-protein ligase XIAP (Homo sapiens, UniProt P98170). Kind of assay: XIAP antagonists, biochemical, IAP family, fluorescence polarization (AID 1018). Type of assay: functional. A general note: In fluorescence polarisation assays a small probe gives low polarisation when free and higher when bound to something large.
In assay [2] the target is T1, E3 ubiquitin-protein ligase XIAP. Description: Counter Screen using XIAP-Bir3 for Chemical Antagonists of Bir1/2 domains of IAP-family anti-apoptotic proteins. [Related pubchem assays (depositor defined):AID1018, AID1449, AID1514, AID1638, AID1749, AID1750, AID488957, AID488963]. (In general: The purpose of a counterscreen is to sort out artefacts and off-target activity.)

Assay [3] deals with Hexokinase (Trypanosoma brucei, UniProt Q38C41). Description: Confirmation assay for inhibitors of Trypanosoma brucei hexokinase 1-Analogue-first series. [Related pubchem assays (depositor defined):AID1430, AID1632, AID2516, AID2560, AID2579, AID2600, AID449725, AID492951]. In kind it is functional.
Hexokinase, sequence (Q38C41 whole entry): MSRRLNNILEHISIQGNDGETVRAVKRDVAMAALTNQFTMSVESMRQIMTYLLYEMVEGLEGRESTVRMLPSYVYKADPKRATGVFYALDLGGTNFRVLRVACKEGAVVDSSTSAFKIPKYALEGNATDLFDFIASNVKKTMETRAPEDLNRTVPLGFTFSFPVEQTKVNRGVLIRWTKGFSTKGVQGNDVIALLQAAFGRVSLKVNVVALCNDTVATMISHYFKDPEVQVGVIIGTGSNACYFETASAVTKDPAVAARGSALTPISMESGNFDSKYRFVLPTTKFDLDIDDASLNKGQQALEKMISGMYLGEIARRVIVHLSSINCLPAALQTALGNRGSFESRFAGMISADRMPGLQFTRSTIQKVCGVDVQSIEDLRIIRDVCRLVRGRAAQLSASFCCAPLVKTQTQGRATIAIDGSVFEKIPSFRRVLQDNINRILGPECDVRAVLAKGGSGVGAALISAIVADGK
The target in assay [4] is Mu-type opioid receptor (Homo sapiens, UniProt P35372). Kind of assay: SAR Analysis of Antagonists of the MOR Receptor using an Image-Based Assay - Set 3. [Related pubchem assays (depositor defined):AID1777, AID1785, AID1786, AID1966, AID2133, AID2136, AID2284, AID2285, AID2420]. In kind it is functional.
Mu-type opioid receptor, sequence (P35372 whole entry): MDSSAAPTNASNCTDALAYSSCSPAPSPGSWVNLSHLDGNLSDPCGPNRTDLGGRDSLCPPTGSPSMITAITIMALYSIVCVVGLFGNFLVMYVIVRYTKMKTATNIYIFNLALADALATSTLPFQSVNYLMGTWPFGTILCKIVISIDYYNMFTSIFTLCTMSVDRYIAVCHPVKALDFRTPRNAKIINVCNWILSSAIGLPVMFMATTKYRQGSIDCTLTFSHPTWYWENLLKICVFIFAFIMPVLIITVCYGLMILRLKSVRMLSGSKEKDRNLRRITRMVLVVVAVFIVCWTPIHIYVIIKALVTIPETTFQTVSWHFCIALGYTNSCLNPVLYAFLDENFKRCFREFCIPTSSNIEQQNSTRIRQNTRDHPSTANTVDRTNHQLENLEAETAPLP
Assay [5] has as its target T2, Kappa-type opioid receptor (Homo sapiens, UniProt P41145). Kind of assay: SAR analysis of small molecule antagonists of the kappa opioid receptor via a luminescent beta-arrestin assay - Set 3. [Related pubchem assays (depositor defined):AID1777, AID1778, AID1785, AID1786, AID1966, AID2133, AID2136, AID2285, AID2495]. Type of assay: functional.
For assay [6], the target named is Delta-type opioid receptor (Homo sapiens, UniProt P41143). Description: SAR Analysis of Antagonists of the DOR Receptor using an Image-Based Assay - Set 3. [Related pubchem assays (depositor defined):AID1777, AID1785]. Type of assay: functional.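 Also: U2OS cells expressing DOR1 and beta-arrestin GFP stimulated with 100 nM SNC80; imaging of GFP-tagged beta-arrestin moving into spots after receptor activation.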
Delta-type opioid receptor, sequence (P41143 whole entry): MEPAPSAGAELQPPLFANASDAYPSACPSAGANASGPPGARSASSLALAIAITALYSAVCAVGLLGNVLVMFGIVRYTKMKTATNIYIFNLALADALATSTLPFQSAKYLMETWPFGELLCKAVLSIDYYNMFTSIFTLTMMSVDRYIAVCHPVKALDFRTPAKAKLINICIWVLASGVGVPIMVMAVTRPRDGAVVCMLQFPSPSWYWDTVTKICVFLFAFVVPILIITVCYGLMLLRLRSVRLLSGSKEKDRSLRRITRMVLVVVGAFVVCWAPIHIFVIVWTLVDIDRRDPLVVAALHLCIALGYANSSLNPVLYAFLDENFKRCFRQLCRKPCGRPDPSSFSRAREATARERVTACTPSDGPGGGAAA
Assay [7] addresses T2, Kappa-type opioid receptor. Description: SAR analysis of Antagonists of the Kappa Opioid Receptor (KOR) using an Image-Based Assay - Set 3. [Related pubchem assays (depositor defined):AID1777, AID1785]. Type of assay: functional.
Assay [8] has as its target T3, Beta-galactosidase (Escherichia coli, UniProt Q8VNN2). Kind of assay: Dose response counterscreen for EBI2 assay utilizing the enzyme, b-galactosidase. In kind it is functional.
In assay [9] the target is Bcl-2-related protein A1 (Mus musculus, UniProt Q07440). In kind it is functional.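 Also: confirmatory dose–response counterscreen on Bfl-1, used to check hits from a UBC13 polyubiquitin inhibitor campaign.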
Bcl-2-related protein A1, sequence (Q07440 whole entry): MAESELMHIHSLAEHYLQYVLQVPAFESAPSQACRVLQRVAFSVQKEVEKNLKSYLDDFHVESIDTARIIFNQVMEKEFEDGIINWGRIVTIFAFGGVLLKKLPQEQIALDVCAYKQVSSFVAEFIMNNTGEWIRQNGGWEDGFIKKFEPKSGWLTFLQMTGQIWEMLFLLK
Assay [10] has as its target T4, Ubiquitin-conjugating enzyme E2 N (Homo sapiens, UniProt P61088).
T4 sequence (P61088 whole entry): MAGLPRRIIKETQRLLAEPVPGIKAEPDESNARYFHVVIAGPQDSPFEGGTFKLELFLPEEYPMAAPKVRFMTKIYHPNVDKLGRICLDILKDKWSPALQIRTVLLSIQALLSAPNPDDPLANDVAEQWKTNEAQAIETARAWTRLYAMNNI
In kind it is functional.

The target in assay [11] is T4, Ubiquitin-conjugating enzyme E2 N. In kind it is functional. The source holds these as a separate data set.
In assay [12] the target is T5, Fatty acid synthase (Homo sapiens, UniProt P49327). Kind of assay: FAS thioesterase domain inhibitors, dose response, biochemical, endpoint fluorescence intensity, uHTS hits (AID 624327).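 Also: fluorescence from hydrolysis of an O-methyl fluorescein acyl ester substrate by the enzyme.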 Type of assay: functional.
Assay [13] addresses T5, Fatty acid synthase. Kind of assay: FAS thioesterase domain inhibitors, dose response, biochemical, kinetic fluorescence intensity (AID 624326).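 Also: rate of fluorescence rise from hydrolysis of a fluorogenic O-methyl fluorescein ester substrate.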 In kind it is functional.
Assay [14] addresses G-protein coupled receptor 55 (Homo sapiens, UniProt Q9Y2T6). Description: GPR55 antagonists blocking LPI-driven arrestin recruitment, primary screen, imaging, U2OS, beta-arrestin-GFP, LPI agonist (AID 2013).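 Also: antagonist potency measured as reduced agonist-driven arrestin aggregation.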 In kind it is functional. On the technique in general: Activated receptors often draw arrestin, which recruitment assays turn into a signal.
Assay [15] in a line: inhibitors of firefly luciferase expression or activity, dose response, H4 neuroglioma cells, luminescence (AID 1990). In kind it is functional, cell-based.
Assay [16] has as its system HEK293. Description: cells. Type of assay: functional, cell-based. The conditions noted are these: Homo sapiens.
The target of assay [17] is T2, Kappa-type opioid receptor. Type of assay: functional.
Assay [18] is described as follows: A Cell Based Secondary Assay To Explore Cytotoxicity of Compounds that Sensitize Mycobacterium Tuberculosis to Beta-Lactam Antibiotics. Type of assay: functional.
The target of assay [19] is T2, Kappa-type opioid receptor. In kind it is functional. The source holds these as a separate data set.
Assay [20] relates to Streptococcus. Kind of assay: Group A Streptococcus viability loss, dose response, counter-screen for streptokinase expression inhibitor project, luminescence, BacTiterGlo (AID 1915).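 Also: potency for reduction of bacterial viability or growth.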 In kind it is functional, organism-based.
Assay [21] can be described thus: Luminescence Cell-Based Dose Response HTS to Identify Inhibitors of 5'UTR Stem-Loop Driven Prion Protein mRNA Translation in H4 Neuroglioblastoma Cells. [Related pubchem assays: 1827 (Project Summary), 1813 (Primary HTS)]. In kind it is functional.
The test system of assay [22] is HEK293. Description: NOD1 signaling inhibitors, primary screen, cell-based, luminescence, uHTS (AID 1578). The following applies: Homo sapiens. Type of assay: functional.
Assay [23] has as its target Nucleotide-binding oligomerization domain-containing protein 2 (Homo sapiens, UniProt Q9HC29). Kind of assay: NOD2 signaling inhibitors, cell-based, luminescence, uHTS, HEK293 (AID 1566). Type of assay: functional.
Assay [24] relates to Streptococcus sp. 'group A'. Description: growth inhibition of control SK(-) GAS strain, dose response, counter-screen for streptokinase expression inhibitor project, luminescence, kanamycin, BacTiterGlo, confirmation (AID 1900). In kind it is functional, organism-based.
Assay [25] deals with INS1. Description: beta cell apoptosis inhibitors, cytokine rescue, dose response, luminescence, retest (AID 449756).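 Also: cell death triggered by IL-1 beta plus TNF-alpha plus IFN-gamma mixture; protective hits raise ATP signal compared with cytokine alone wells.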 The following applies: Rattus norvegicus. Type of assay: functional, cell-based.
In assay [26] the test system is Vero. Kind of assay: cells. Type of assay: functional, cell-based, Chlorocebus sabaeus. The conditions noted are these: Chlorocebus sabaeus, Vero.
Assay [27] concerns HEK293. Kind of assay: cells. Type of assay: functional, cell-based. The conditions noted are these: Homo sapiens. The source holds these as a separate data set.
For assay [28], the target named is Nonstructural protein 1 (Influenza A virus, UniProt Q194T2). Type of assay: functional, Influenza A virus (A/California/07/2009(H1N1)).
Nonstructural protein 1, sequence (Q194T2 whole entry): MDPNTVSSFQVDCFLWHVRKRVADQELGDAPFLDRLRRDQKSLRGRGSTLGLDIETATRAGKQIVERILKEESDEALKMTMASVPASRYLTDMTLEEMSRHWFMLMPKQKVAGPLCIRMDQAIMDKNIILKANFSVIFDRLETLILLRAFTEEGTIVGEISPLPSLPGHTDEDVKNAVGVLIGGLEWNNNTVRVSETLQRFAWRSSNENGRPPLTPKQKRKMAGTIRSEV
For assay [29], the system named is Vero. Description: cells. In kind it is functional, Chlorocebus sabaeus. The conditions noted are these: Chlorocebus sabaeus, Vero.
Assay [30] has as its system HEK293. Kind of assay: cells. The conditions noted are these: Homo sapiens. In kind it is functional, cell-based. The source holds these as a separate data set.
In assay [31] the target is T3, Beta-galactosidase. In kind it is functional.
Assay [32] is described as follows: inhibitors of SNCA 5'UTR-driven reporter translation, confirmation, H4 neuroglioma cells, luminescence (AID 1988). Type of assay: functional, cell-based.
Assay [33] concerns HEK293. Kind of assay: NOD2 signaling inhibitors in MDP-stimulated cells, cell-based, uHTS, luminescence (AID 2001). The conditions noted are these: Homo sapiens. Type of assay: functional.

Each structure is given as a SMILES string. The source made the active and inactive calls.

T1 sequence (P98170 whole entry): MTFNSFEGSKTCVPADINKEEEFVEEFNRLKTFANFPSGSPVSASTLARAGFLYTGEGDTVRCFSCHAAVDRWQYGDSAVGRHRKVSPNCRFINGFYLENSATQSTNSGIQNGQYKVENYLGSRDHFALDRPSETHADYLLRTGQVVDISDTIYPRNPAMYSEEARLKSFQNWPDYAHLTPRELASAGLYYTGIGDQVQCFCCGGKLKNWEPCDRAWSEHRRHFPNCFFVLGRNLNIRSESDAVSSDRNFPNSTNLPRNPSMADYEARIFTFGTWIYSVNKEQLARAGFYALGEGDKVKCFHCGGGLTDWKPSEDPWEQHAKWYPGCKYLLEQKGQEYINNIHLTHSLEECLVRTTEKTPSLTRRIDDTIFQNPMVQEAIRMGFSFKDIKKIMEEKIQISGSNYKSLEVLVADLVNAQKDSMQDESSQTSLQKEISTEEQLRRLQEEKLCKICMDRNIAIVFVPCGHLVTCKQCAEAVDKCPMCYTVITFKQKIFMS
T2 sequence (P41145 whole entry): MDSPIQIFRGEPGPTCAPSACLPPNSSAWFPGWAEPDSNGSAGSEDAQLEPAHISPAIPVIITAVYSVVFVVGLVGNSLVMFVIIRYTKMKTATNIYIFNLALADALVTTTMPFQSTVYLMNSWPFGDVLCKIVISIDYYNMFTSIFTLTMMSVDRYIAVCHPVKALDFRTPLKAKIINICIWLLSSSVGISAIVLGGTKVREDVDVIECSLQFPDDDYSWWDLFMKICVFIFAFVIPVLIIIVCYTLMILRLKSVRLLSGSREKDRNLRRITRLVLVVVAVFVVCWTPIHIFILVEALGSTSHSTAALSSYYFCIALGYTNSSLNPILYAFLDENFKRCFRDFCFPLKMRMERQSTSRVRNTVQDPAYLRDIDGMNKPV
T3 sequence (Q8VNN2 whole entry): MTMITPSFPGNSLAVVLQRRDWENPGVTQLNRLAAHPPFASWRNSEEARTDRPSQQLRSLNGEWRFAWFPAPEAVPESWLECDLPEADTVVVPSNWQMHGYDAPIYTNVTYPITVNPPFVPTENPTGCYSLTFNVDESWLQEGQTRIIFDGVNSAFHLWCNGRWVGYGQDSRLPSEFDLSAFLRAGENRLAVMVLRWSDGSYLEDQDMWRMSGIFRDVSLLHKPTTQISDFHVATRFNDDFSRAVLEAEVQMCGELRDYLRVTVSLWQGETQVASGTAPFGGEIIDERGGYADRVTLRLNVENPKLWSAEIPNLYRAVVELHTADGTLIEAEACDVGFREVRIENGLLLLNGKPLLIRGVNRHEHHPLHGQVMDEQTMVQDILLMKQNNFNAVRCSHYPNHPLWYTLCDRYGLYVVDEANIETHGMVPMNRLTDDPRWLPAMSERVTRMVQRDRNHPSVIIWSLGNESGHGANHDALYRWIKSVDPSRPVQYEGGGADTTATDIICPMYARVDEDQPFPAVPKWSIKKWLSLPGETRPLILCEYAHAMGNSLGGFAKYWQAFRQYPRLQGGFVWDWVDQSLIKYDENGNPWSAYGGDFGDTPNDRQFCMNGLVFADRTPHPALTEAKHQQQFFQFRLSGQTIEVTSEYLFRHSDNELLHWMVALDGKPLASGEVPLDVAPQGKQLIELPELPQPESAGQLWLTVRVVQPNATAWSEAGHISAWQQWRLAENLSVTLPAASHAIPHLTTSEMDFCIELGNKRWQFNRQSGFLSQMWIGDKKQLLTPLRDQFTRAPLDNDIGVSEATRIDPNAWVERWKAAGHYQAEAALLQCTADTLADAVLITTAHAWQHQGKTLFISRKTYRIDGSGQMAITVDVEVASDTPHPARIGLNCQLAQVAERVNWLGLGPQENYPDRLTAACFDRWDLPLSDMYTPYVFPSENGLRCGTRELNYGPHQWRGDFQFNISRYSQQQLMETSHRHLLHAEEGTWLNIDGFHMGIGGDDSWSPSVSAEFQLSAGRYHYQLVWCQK
Nucleotide-binding oligomerization domain-containing protein 2, sequence (Q9HC29 whole entry, the tested form may be a part): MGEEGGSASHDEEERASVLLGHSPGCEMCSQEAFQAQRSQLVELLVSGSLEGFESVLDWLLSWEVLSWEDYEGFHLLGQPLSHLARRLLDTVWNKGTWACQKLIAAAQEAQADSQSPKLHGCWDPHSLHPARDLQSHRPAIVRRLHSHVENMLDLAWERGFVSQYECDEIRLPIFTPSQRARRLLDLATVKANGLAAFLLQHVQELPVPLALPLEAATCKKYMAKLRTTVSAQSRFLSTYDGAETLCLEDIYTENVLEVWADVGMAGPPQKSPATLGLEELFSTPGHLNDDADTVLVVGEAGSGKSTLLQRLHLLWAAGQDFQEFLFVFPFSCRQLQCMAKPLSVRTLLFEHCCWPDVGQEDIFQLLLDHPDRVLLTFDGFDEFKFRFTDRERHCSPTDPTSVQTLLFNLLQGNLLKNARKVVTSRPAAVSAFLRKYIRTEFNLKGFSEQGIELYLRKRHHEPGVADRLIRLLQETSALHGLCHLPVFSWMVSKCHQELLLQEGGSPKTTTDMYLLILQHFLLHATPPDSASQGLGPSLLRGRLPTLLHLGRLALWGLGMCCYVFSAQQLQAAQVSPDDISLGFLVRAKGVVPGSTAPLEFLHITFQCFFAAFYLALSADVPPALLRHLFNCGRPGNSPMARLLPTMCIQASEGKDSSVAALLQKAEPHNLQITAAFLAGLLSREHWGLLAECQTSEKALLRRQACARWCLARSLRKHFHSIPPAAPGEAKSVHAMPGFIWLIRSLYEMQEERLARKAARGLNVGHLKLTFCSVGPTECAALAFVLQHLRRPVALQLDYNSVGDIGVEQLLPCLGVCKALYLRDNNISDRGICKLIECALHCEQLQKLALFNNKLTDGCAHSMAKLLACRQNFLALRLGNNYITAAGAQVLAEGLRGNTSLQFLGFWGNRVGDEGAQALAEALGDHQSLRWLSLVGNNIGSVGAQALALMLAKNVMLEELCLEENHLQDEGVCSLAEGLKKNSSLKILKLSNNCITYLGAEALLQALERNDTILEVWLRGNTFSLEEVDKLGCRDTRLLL
G-protein coupled receptor 55, sequence (Q9Y2T6 whole entry): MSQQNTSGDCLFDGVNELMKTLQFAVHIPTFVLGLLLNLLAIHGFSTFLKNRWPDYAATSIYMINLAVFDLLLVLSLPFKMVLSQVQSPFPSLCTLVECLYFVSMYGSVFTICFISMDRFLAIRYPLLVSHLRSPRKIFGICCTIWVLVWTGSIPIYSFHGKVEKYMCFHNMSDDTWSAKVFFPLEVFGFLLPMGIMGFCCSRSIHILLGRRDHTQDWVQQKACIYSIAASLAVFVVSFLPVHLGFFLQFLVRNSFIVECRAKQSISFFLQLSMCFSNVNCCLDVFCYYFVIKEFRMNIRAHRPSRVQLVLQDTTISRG

Turning to `O=C(O)C1C2C=CC(C2)C1C(=O)Nc1ccc(C(=O)N2CCCCC2)cc1` (stereo not given), the figures for the IC50 in assay [1] and in [2] were > 100 µM (not active) and > 100 µM (inactive), respectively.
Take `CN(C)c1ccc(C(=O)Nc2cc(Cl)ccc2C(=O)O)cc1`: the IC50 (as a rule, the point on the concentration scale where inhibition reaches its midpoint) in assay [3] is > 25 µM (inactive).
As for `Cc1ccc(CN(CCNC(=O)c2ccc(CNS(=O)(=O)c3cccc(C)c3)cc2)C(C)C)cc1`, the IC50 was > 32 µM (inactive) in assay [4], 1.83 µM (active) in assay [5], > 32 µM (inactive) in [6] and 0.675 µM (active) in assay [7].
Consider `Cc1ccc(N(C(=O)c2snc(C(N)=O)c2N)C(C(=O)NC2CCCC2)c2ccc(C)o2)cc1` (stereo not given), for which the IC50 was > 80 µM (inactive) in assay [8], > 20 µM (inactive) in assay [9], 10.4 µM (active) in assay [10] and 19.9 µM (active) in [11].
With `CCS(=O)(=O)c1ccc(-c2csc(-c3ccc(Cl)cc3)n2)c(Cl)c1Cl`, the IC50 in assay [12] is 2.71 µM (active); in [13], 1.86 µM (active); in assay [14] it was 5.51 µM (active).
As for `COc1ccc(CCC(=O)OCC(=O)Nc2ccc(C)c(S(=O)(=O)N(C)C)c2)cc1`, the IC50 in assay [1] is > 100 µM (not active); in [2], > 100 µM (inactive).
As to `C/C(=N\NC(=O)c1cc(Br)ccc1O)c1ccccn1`, the EC50 (as a rule, the concentration at which the effect is half-maximal) is 10.2 µM (inconclusive) in assay [15]; 3.7 µM (active) in assay [20]; 10.3 µM (active) in assay [21]; > 20 µM (inactive) in [22]; > 20 µM (inactive) in [23]; 0.43 µM (active) in [24]. The values for the EC50 in assay [31] and in assay [32] were > 31.5 µM (inactive) and 5.29 µM (active), respectively. For the same compound, the IC50 was 17.6 µM (active) in [16]; above 32 µM in assay [17]; 3.54 µM (active) in assay [19]; > 25 µM (active) in assay [26]; > 20 µM (inactive) in assay [27]; 30.4 µM (active) in assay [28]. Moreover, the results for the IC50 in [30] and in assay [33] were > 20 µM (inactive) and 6.47 µM (inactive), respectively. Moreover, the CC50 (as a rule, the concentration at which the toxic effect on the cells reaches its halfway point) is 3.47 µM (active) in [18] and 3.81 µM (active) in assay [29]. In addition, the AC50 – broadly, the midpoint of the concentration-response curve, whichever way the signal moves – in assay [25] is 1.74 µM (active).
For the compound `COc1ccc(S(=O)(=O)NCc2ccc(C(=O)NCCN3Cc4ccccc4C3)cc2)cc1`, the IC50 in assay [4] was > 32 µM (inactive); in [5], > 20 µM (inactive); in [6], > 32 µM (inactive); in assay [7] it was > 32 µM (inactive).
`O=C(Cn1sc2ccccc2c1=O)NC1CCCCC1`: in [3], the IC50 was 9.35 µM (active).
